According to ChEMBL document CHEMBL4354828, “Discovery of Taniborbactam (VNRX-5133): A Broad-Spectrum Serine- and Metallo-β-lactamase Inhibitor for Carbapenem-Resistant Bacterial Infections” (J Med Chem, 2020):
Converted amounts (≈) assume the structure as drawn.

What was measured:
[1] = target: Cathepsin G (Homo sapiens, UniProt P08311); assay: Inhibition of human cathepsin G at 100 uM
[2] = tested on: Pseudomonas aeruginosa; assay: Effect on growth of Pseudomonas aeruginosa Ps296 AmpC/VIM-2/TEM-1 after 16 to 20 hrs by CLSI-based microbroth dilution method; format: organism-based; settings: in vivo
[3] = target: Matrix metalloproteinase-9 (Homo sapiens, UniProt P14780); assay: Inhibition of human MMP9 at 100 uM
[4] = tested on: Enterobacter cloacae; assay: Inhibition of TEM/CTX-M/SHV/Cephalosporinase in Enterobacter cloacae CH23 assessed as cefepime antibacterial activity at 4 ug/ml after 16 to 20 hrs by CLSI-based microbroth dilution method (Rvb > […] ug/ml)
[5] = tested on: Klebsiella aerogenes; assay: Effect on growth of Enterobacter aerogenes 188548 expressing AmpC after 16 to 20 hrs by CLSI-based microbroth dilution method; format: organism-based; settings: in vivo
[6] = Inhibition of bacterial KPC-2 using imipenem as substrate preincubated for 15 mins followed by susbtrate addition and measured after 10 mins by spectrophotometric method; design: species or system Bacteria
[7] = tested on: Escherichia coli; assay: Effect on growth of wild type Escherichia coli ATCC 25922 after 16 to 20 hrs by CLSI-based microbroth dilution method; format: organism-based; settings: in vitro
[8] = tested on: Escherichia coli; assay: Effect on growth of Escherichia coli J53 expressing SHV5/ AmpC/TEM-1 after 16 to 20 hrs by CLSI-based microbroth dilution method; format: organism-based; settings: in vivo
[9] = tested on: Pseudomonas aeruginosa; assay: Effect on growth of wild type Pseudomonas aeruginosa 27853 after 16 to 20 hrs by CLSI-based microbroth dilution method; format: organism-based
[10] = tested on: Klebsiella pneumoniae; assay: Inhibition of OXA-48 in Klebsiella pneumoniae assessed as meropenem antibacterial activity at 4 ug/ml after 16 to 20 hrs by CLSI-based microbroth dilution method (Rvb >= […] ug/ml)
[11] = tested on: Klebsiella pneumoniae; assay: Inhibition of KPC/Cephalosporinase in Klebsiella pneumoniae 664-1 assessed as cefepime antibacterial activity at 4 ug/ml after 16 to 20 hrs by CLSI-based microbroth dilution method (Rvb > […] ug/ml)
[12] = target: Cytochrome P450 3A4 (Homo sapiens, UniProt P08684); assay: Inhibition of human CYP3A4 at 100 uM; format: ADME
[13] = target: Cytochrome P450 1A2 (Homo sapiens, UniProt P05177); assay: Inhibition of human CYP1A2 at 100 uM; format: ADME
[14] = tested on: Klebsiella pneumoniae; assay: Effect on growth of Klebsiella pneumoniae 11978 expressing OXA-48 after 16 to 20 hrs by CLSI-based microbroth dilution method; format: organism-based; settings: in vivo
[15] = tested on: Klebsiella pneumoniae; assay: Effect on growth of Klebsiella pneumoniae A-1797 expressing KPC-2/VIM-4/CMY-4 after 16 to 20 hrs by CLSI-based microbroth dilution method; format: organism-based; settings: in vivo
[16] = tested on: Klebsiella pneumoniae; assay: Inhibition of TEM/CTX-M/SHV/KPC in Klebsiella pneumoniae 964-2 assessed as cefepime antibacterial activity at 4 ug/ml after 16 to 20 hrs by CLSI-based microbroth dilution method (Rvb > […] ug/ml)
[17] = tested on: Klebsiella pneumoniae; assay: Inhibition of TEM/CTX-M/SHV in Klebsiella pneumoniae 9032 assessed as cefepime antibacterial activity at 4 ug/ml after 16 to 20 hrs by CLSI-based microbroth dilution method (reference value: […] ug/ml)
[18] = target: Stromelysin-1 (Homo sapiens, UniProt P08254); assay: Inhibition of human MMP3 at 100 uM
[19] = Inhibition of bacterial OXA-48 using nitrocefin as substrate preincubated for 15 mins followed by susbtrate addition and measured after 10 mins by spectrophotometric method; design: species or system Bacteria
[20] = target: Trypsin (Homo sapiens, UniProt P07477+P07478+P35030); assay: Inhibition of human trypsin at 100 uM; format: protein assay
[21] = target: Cytochrome P450 2D6 (Homo sapiens, UniProt P10635); assay: Inhibition of human CYP2D6 at 100 uM; format: ADME
Sequence of Cytochrome P450 2D6 (P10635 whole entry): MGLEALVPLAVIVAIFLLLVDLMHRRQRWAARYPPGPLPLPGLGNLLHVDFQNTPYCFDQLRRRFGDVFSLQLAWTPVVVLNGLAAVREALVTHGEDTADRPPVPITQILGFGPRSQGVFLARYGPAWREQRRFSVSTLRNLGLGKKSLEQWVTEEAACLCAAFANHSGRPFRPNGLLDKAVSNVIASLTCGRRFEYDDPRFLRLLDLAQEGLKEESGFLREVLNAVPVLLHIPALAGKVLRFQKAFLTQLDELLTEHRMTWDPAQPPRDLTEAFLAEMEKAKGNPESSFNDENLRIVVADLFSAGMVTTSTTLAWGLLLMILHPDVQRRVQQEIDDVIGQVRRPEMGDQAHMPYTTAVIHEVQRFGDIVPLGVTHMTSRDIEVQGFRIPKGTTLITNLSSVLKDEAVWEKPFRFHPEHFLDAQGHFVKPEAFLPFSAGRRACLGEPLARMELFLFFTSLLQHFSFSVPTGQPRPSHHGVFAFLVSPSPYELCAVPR

Sequence of Cytochrome P450 1A2 (P05177 whole entry): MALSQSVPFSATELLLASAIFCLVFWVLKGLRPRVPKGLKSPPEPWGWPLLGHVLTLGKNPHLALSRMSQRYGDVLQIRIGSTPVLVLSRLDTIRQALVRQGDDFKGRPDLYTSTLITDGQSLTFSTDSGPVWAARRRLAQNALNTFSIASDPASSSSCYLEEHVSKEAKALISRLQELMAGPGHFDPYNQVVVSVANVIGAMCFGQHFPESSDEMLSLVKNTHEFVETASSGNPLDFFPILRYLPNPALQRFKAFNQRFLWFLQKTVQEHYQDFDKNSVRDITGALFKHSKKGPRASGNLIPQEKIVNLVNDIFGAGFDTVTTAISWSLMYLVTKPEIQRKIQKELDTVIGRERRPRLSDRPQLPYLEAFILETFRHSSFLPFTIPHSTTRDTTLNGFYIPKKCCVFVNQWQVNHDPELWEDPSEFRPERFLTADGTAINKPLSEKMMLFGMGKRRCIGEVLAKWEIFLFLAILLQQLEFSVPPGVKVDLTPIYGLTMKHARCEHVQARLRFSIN
Sequence of Cathepsin G (P08311 whole entry): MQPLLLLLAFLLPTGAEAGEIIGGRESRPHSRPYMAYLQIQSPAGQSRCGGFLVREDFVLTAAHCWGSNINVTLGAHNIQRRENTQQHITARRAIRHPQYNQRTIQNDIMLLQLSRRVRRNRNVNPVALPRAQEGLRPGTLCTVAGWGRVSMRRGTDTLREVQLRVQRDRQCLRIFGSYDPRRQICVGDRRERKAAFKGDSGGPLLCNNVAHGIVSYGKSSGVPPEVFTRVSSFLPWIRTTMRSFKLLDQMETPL
Sequence of Stromelysin-1 (P08254 whole entry): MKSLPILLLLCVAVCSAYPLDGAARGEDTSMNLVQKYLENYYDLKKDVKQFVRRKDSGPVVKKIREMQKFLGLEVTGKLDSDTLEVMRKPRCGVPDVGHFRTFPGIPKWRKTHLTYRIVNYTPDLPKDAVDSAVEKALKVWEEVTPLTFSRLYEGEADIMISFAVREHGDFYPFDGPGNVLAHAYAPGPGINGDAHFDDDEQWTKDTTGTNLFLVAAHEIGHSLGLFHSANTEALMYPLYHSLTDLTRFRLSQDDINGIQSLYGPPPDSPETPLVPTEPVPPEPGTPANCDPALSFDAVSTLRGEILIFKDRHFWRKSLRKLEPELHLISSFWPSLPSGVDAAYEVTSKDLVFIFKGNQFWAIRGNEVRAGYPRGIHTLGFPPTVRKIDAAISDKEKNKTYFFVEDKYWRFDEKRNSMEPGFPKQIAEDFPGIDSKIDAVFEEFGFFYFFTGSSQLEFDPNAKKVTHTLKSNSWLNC
Sequence of Matrix metalloproteinase-9 (P14780 whole entry): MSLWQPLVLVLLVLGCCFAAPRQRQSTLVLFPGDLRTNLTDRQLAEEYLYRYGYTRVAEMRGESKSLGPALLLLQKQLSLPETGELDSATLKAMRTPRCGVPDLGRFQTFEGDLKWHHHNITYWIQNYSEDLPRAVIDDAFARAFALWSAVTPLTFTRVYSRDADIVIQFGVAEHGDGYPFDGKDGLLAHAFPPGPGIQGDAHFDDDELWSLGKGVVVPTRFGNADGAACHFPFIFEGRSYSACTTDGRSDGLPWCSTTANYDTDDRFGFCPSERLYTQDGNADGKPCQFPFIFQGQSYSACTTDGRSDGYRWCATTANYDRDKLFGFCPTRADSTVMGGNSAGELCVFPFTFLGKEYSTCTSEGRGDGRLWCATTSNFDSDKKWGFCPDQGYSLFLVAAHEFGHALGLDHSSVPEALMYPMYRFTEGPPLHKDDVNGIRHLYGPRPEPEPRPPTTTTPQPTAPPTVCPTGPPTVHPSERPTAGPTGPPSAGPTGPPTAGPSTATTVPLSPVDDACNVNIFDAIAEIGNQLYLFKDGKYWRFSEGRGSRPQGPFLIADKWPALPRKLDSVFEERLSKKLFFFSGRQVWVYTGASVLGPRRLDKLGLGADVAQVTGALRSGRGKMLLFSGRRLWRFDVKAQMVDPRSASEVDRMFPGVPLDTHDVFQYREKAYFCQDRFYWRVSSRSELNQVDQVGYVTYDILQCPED
Sequence of Cytochrome P450 3A4 (P08684 whole entry): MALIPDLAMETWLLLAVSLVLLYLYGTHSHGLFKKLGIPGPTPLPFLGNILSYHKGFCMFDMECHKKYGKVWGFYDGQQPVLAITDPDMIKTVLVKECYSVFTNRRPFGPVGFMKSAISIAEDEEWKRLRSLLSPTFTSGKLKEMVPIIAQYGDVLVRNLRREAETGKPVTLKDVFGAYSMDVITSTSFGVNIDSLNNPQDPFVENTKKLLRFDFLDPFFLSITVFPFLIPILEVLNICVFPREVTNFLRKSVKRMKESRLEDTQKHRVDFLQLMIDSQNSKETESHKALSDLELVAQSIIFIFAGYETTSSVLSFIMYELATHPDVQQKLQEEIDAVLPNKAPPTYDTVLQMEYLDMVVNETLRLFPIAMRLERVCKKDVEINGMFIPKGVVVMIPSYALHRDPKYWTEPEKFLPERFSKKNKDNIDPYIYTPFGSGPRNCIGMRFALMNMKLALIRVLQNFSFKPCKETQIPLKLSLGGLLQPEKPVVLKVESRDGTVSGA

NCCN[C@H]1CC[C@H](CC(=O)N[C@H]2Cc3cccc(C(=O)O)c3OB2O)CC1
inhibition (INH) [1]: Not Active | MIC [2]: > 128 µg/mL | inhibition (INH) [3]: Not Active | MIC [4]: 0.5 µg/mL (≈ 1.28 µM) | MIC [5]: > 128 µg/mL | IC50 [6]: 0.03 µM | MIC [7]: > 128 µg/mL | MIC [8]: > 128 µg/mL | MIC [9]: > 128 µg/mL | MIC [10]: 2 µg/mL (≈ 5.14 µM) | MIC [11]: 0.25 µg/mL (≈ 0.642 µM) | inhibition (INH) [12]: Not Active | inhibition (INH) [13]: Not Active | MIC [14]: > 128 µg/mL | MIC [15]: > 128 µg/mL | MIC [16]: < 0.125 µg/mL | MIC [17]: < 0.125 µg/mL | inhibition (INH) [18]: Not Active | IC50 [19]: 0.42 µM | inhibition (INH) [20]: Not Active | inhibition (INH) [21]: Not Active
